Experimental data from US20260176594A1, “REDUCING DISEASE TRANSMISSION OF VECTOR BORNE DISEASES” (priority 2022, published 2026).

Test system: Zika virus
Test: Zika virus replication in Aedes aegypti mosquitoes fed blood meal with harmane, plaque assay on VERO cells
Format: in vivo
Details: harmane in infectious blood meal, 7 days; for Zika virus PFU/mL in mosquito abdomens: vs control group
Description: 3-to-5-day-old Aedes aegypti strain SBE mosquitoes were fed via membrane feeders on a blood meal (rabbit blood) containing approximately 10^7 PFU/ml Zika virus and the indicated concentrations of harmane dissolved in dimethyl sulphoxide (DMSO). The bloodmeal fed to the control group contained no harmane. Fully engorged mosquitoes were selected and kept on a 10% sucrose diet. In total, 30 mosquitoes were analyzed per treatment.
After 7 days, the abdomens of mosquitoes were dissected and placed in 2 mL tubes containing glass beads and 300 μL of DMEM medium. Samples were homogenized. A 1:10 dilution series of this solution was dispersed onto 96-well plates containing VERO cells. 5-6 days later, the medium was discarded and viral plaques were fixed and developed with staining reagent (1% crystal violet in […] solution) at room temperature for 1 h. 5
Plates were rinsed with distilled water and air-dried. Plaques were counted and multiplied by the corresponding dilution factors to calculate the number of plaque-forming units (PFUs). Horizontal red lines are median values. […] Statistical differences were assessed using the nonparametric Mann-Whitney test.

## Cc1nccc2c1[nH]c1ccccc12 [harmane, 1-Methyl-9H-pyrido[3,4-b]indole]
  statistical difference of treated groups compared to the DMSO-control (Mann-Whitney): No significant differences
  Zika virus PFU/mL in mosquito abdomens: reduced level
Listed as Harmane
  Zika virus PFU/mL in mosquito abdomens: dose dependent decrease
